The results in this text go back to ChEMBL document CHEMBL3400083, “Effect of the tyrosinase inhibitor (S)-N-trans-feruloyloctopamine from garlic skin on tyrosinase gene expression and melanine accumulation in melanoma cells” (Bioorg Med Chem Lett, 2015).

Activity calls are given as the source filed them. No cut-off for these calls is given here.

What is called IC50 is the concentration needed to halve the response being measured. What is called inhibition is the relative decrease from the control value, in per cent.

Data set [1] concerns the target T1, Tyrosinase (Homo sapiens, UniProt P14679).
T1 sequence (P14679 whole entry): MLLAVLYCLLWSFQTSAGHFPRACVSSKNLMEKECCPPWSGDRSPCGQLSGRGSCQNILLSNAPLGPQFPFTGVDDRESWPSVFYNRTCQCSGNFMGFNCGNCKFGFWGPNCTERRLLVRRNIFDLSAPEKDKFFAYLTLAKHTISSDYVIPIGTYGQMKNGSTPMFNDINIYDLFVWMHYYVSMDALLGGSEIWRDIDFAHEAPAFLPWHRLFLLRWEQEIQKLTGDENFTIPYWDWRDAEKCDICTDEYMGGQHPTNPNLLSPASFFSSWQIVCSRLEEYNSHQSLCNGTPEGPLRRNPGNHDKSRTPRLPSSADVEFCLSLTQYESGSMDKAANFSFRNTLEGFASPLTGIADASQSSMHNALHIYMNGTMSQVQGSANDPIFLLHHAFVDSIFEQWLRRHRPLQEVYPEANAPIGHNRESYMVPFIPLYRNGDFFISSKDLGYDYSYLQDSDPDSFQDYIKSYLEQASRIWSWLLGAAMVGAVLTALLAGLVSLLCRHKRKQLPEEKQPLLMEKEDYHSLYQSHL
The data set is described as follows: Inhibition of tyrosinase (unknown origin).

A short description of data set [2]: Cytotoxicity against mouse B16F10 cells assessed as cell viability at 1.5 uM after 72 hrs by MTT assay (reference value: 99.6 +/- 3.5%). In kind it is cell-based, B16-F10. The conditions noted are these: read-out: Activity. A general note: Formazan colour is commonly taken as a measure of viable cells.
A short description of data set [3]: Cytotoxicity against mouse B16F10 cells assessed as cell viability at 3 uM after 72 hrs by MTT assay (reference value: 99.6 +/- 3.5%). The conditions noted are these: read-out: Activity. In kind it is cell-based, B16-F10.
A short description of data set [4]: Cytotoxicity against mouse B16F10 cells assessed as cell viability at 6 uM after 72 hrs by MTT assay (reference value: 99.6 +/- 3.5%). In kind it is cell-based, B16-F10. The conditions noted are these: read-out: Activity.
A short description of data set [5]: Cytotoxicity against mouse B16F10 cells assessed as cell viability at 12 uM after 72 hrs by MTT assay (reference value: 99.6 +/- 3.5%). In kind it is cell-based, B16-F10. The conditions noted are these: read-out: Activity.
Data set [6] in a line: Cytotoxicity against mouse B16F10 cells assessed as cell viability at 24 uM after 72 hrs by MTT assay (reference value: 99.6 +/- 3.5%). In kind it is cell-based, B16-F10. The conditions noted are these: read-out: Activity.
A short description of data set [7]: Cytotoxicity against mouse B16F10 cells assessed as cell viability at 48 uM after 72 hrs by MTT assay (reference value: 99.6 +/- 3.5%). In kind it is cell-based, B16-F10. Conditions: read-out: Activity.
A short description of data set [8]: Cytotoxicity against mouse B16F10 cells assessed as cell viability at 96 uM after 72 hrs by MTT assay (reference value: 99.6 +/- 3.5%). In kind it is cell-based, B16-F10. Conditions: read-out: Activity.
In data set [9] the target is T2, Tyrosinase (Mus musculus) (UniProt P11344).
T2 sequence (whole entry): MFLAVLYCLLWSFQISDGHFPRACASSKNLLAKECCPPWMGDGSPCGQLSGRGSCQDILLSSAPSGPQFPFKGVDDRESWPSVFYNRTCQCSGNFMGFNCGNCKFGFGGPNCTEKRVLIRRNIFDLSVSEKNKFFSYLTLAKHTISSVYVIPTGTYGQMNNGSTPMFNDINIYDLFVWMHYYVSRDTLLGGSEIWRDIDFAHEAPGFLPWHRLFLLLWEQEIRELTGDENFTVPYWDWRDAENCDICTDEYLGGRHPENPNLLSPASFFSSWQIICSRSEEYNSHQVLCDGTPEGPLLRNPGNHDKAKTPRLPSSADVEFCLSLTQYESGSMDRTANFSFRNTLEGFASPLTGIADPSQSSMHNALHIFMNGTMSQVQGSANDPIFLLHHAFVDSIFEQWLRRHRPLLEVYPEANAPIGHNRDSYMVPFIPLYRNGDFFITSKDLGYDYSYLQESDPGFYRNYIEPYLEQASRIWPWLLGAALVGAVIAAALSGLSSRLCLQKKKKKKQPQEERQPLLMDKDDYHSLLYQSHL
The data set is described as follows: Inhibition of tyrosinase in mouse B16F10 cells assessed as reduction in alpha-MSH-induced melanin content at 48 uM (reference value: 98.5 +/- 4.7%). In kind it is cell-based. Conditions: B16-F10.

In data set [10] the target is T2, Tyrosinase (Mus musculus). The data set is described as follows: Inhibition of tyrosinase in mouse B16F10 cells assessed as reduction in alpha-MSH-induced melanin content at 96 uM (reference value: 98.5 +/- 4.7%). In kind it is cell-based. Conditions: B16-F10.
The target of data set [11] is T2, Tyrosinase (Mus musculus). Description: (§1) Inhibition of tyrosinase in mouse B16F10 cells assessed as reduction in alpha-MSH-induced melanin content. In kind it is cell-based. Conditions: B16-F10.
Data set [12] concerns the target T3, Tyrosinase (Mus musculus, UniProt P11344).
T3 sequence (P11344 whole entry): T2 sequence (whole entry)
The data set is described as §1. In kind it is cell-based, B16-F10.

Another data set has as its system B16-F10. The data set is described as follows: Inhibition of tyrosinase mRNA expression in alpha-MSH-stimulated mouse B16F10 cells at 48 to 96 uM incubated for 1 hr prior to alpha-MSH challenge measured after 24 hrs by RT-PCR analysis. In kind it is functional, cell-based.
Data set [13] in a line: Inhibition of tyrosinase protein expression in alpha-MSH-stimulated mouse B16F10 cells at 48 to 96 uM incubated for 1 hr prior to alpha-MSH challenge measured after 24 hrs by Western blotting analysis. Conditions: B16-F10. In kind it is functional, cell-based. In general terms: In western blotting, separated proteins are transferred to a membrane and probed.
Data set [14] has as its target T2, Tyrosinase (Mus musculus). The conditions noted are these: B16-F10, 100 uM.
Description: Inhibition of tyrosinase in mouse B16F10 cells assessed as reduction in alpha-MSH-induced melanin content at 100 uM

On to `CC(C)(C)c1cc(O)ccc1O` [E319], for which the IC50 on Tyrosinase [1] is 54.2 µM.
For the compound `COc1cc(/C=C/C(=O)NC[C@@H](O)c2ccc(O)cc2)ccc1O`, the viability at 72 h, 1.5 µM in [2] was 102%. The viability at 72 h, 3 µM in data set [3] amounted to 105%. Moreover, the viability at 72 h, 6 µM in data set [4] was found to be 97.8%. Further, the viability at 72 h, 12 µM in data set [5] is 99.4%. Moreover, the viability at 72 h, 24 µM in [6] came to 98.3%. For the same compound, the viability at 72 h, 48 µM in [7] is 97.2%. In addition, the viability at 72 h, 96 µM in data set [8] worked out at 96%. The values for the inhibition in data set [9], in data set [10] and in data set [11] were 122%, 106% and “Dose-dependent effect”, respectively. At Tyrosinase [12], the IC50 was > 96 µM. In addition, the inhibition entry (in the data set with B16-F10; in [13]) was “Active” in each case.
For `OC[C@H]1O[C@@H](Oc2ccc(O)cc2)[C@H](O)[C@@H](O)[C@@H]1O`, the inhibition in data set [14] worked out at 146%.
